Measured values: PubChem BioAssay (NCI)
Where “and” joins values, the source holds several entries; their conditions need not be identical. Equal values may be shown once.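 GI50 is the concentration that inhibits growth by half. TGI: total growth inhibition.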

Tests used:
Test in all cases: NCI anticancer screen, dose series, 384-well format
CAKI-1 renal = tested on: CAKI-1 renal
HOP-92 NSCLC = tested on: HOP-92 NSCLC
UACC-257 melanoma = tested on: UACC-257 melanoma
CCRF-CEM leukemia = tested on: CCRF-CEM leukemia
SF-295 CNS = tested on: SF-295 CNS
NCI-H322M lung = tested on: NCI-H322M lung
MCF7 breast = tested on: MCF7 breast
PC-3 prostate = tested on: PC-3 prostate
SW-620 colon = tested on: SW-620 colon
A498 renal = tested on: A498 renal
BT-549 breast = tested on: BT-549 breast
IGROV1 ovarian = tested on: IGROV1 ovarian
OVCAR-5 ovarian = tested on: OVCAR-5 ovarian
HCC-2998 colon = tested on: HCC-2998 colon
NCI-H23 lung = tested on: NCI-H23 lung
SK-MEL-28 melanoma = tested on: SK-MEL-28 melanoma
SNB-19 CNS = tested on: SNB-19 CNS
SN12C renal = tested on: SN12C renal
NCI-H226 lung = tested on: NCI-H226 lung
MALME-3M melanoma = tested on: MALME-3M melanoma
LOX IMVI melanoma = tested on: LOX IMVI melanoma
NCI-H522 lung = tested on: NCI-H522 lung
RXF 393 renal = tested on: RXF 393 renal
EKVX NSCLC = tested on: EKVX NSCLC
NCI-H460 NSCLC = tested on: NCI-H460 NSCLC
SK-MEL-2 melanoma = tested on: SK-MEL-2 melanoma
SNB-75 CNS = tested on: SNB-75 CNS
SF-539 CNS = tested on: SF-539 CNS
HCT-15 colon = tested on: HCT-15 colon
SF-268 CNS = tested on: SF-268 CNS
OVCAR-8 ovarian = tested on: OVCAR-8 ovarian
MDA-MB-231 breast = tested on: MDA-MB-231 breast
U251 glioblastoma = tested on: U251 glioblastoma
MDA-MB-468 breast = tested on: MDA-MB-468 breast
NCI/ADR-RES ovarian = tested on: NCI/ADR-RES ovarian
COLO 205 colon = tested on: COLO 205 colon
KM12 colon = tested on: KM12 colon
UO-31 renal = tested on: UO-31 renal
T-47D breast = tested on: T-47D breast
786-0 renal = tested on: 786-0 renal
HL-60(TB) leukemia = tested on: HL-60(TB) leukemia
DU-145 prostate = tested on: DU-145 prostate
RPMI-8226 leukemia = tested on: RPMI-8226 leukemia
OVCAR-3 ovarian = tested on: OVCAR-3 ovarian
HCT-116 colon = tested on: HCT-116 colon
M14 melanoma = tested on: M14 melanoma
HT29 colon = tested on: HT29 colon
ACHN renal = tested on: ACHN renal
SK-MEL-5 melanoma = tested on: SK-MEL-5 melanoma
HS 578T breast = tested on: HS 578T breast
MDA-MB-435 melanoma = tested on: MDA-MB-435 melanoma
MOLT-4 leukemia = tested on: MOLT-4 leukemia
SR leukemia = tested on: SR leukemia
HOP-62 NSCLC = tested on: HOP-62 NSCLC
UACC-62 melanoma = tested on: UACC-62 melanoma
TK-10 renal = tested on: TK-10 renal
OVCAR-4 ovarian = tested on: OVCAR-4 ovarian
SK-OV-3 ovarian = tested on: SK-OV-3 ovarian
A549 NSCLC = tested on: A549 NSCLC
K-562 leukemia = tested on: K-562 leukemia

COc1c(OCCCN2CCOCC2)ccc2c3n(c(=NC(=O)c4cnc(N)nc4)nc12)CCN3
GI50 (CAKI-1 renal): 27 nM and 72.4 nM | TGI (CAKI-1 renal): 317 nM | GI50 (HOP-92 NSCLC): 38.5 nM and 35 nM | GI50 (UACC-257 melanoma): 172 nM and 201 nM | TGI (UACC-257 melanoma): 10300 nM and 3800 nM | GI50 (CCRF-CEM leukemia): 18 nM and 38.6 nM | TGI (CCRF-CEM leukemia): 5610 nM and 1330 nM | GI50 (SF-295 CNS): 177 nM and 135 nM | GI50 (NCI-H322M lung): 93.3 nM and 38.9 nM | GI50 (MCF7 breast): < 5 nM | TGI (MCF7 breast): > 50000 nM | GI50 (PC-3 prostate): 66.8 nM and 34.4 nM | GI50 (SW-620 colon): 270 nM and 656 nM | TGI (SW-620 colon): > 100000 nM | GI50 (A498 renal): 53.9 nM and 68.3 nM | TGI (A498 renal): 146 nM and 470 nM | GI50 (BT-549 breast): 102 nM and 65.3 nM | TGI (BT-549 breast): 2870 nM and 648 nM | GI50 (IGROV1 ovarian): < 5 nM | TGI (IGROV1 ovarian): 16.5 nM and 29.9 nM | GI50 (OVCAR-5 ovarian): 51.9 nM and 152 nM | TGI (OVCAR-5 ovarian): > 100000 nM | GI50 (HCC-2998 colon): 82.3 nM and 138 nM | TGI (HCC-2998 colon): 5440 nM and 766 nM | GI50 (NCI-H23 lung): 472 nM and 248 nM | TGI (NCI-H23 lung): > 50000 nM | GI50 (SK-MEL-28 melanoma): 71 nM and 56.2 nM | TGI (SK-MEL-28 melanoma): 2560 nM | GI50 (SNB-19 CNS): 572 nM and 1040 nM | TGI (SNB-19 CNS): > 100000 nM | GI50 (SN12C renal): 77.7 nM | TGI (SN12C renal): > 50000 nM | GI50 (NCI-H226 lung): 160 nM and 90.8 nM | TGI (NCI-H226 lung): > 50000 nM | GI50 (MALME-3M melanoma): 74.5 nM and 22.8 nM | TGI (MALME-3M melanoma): 396 nM and 204 nM | GI50 (LOX IMVI melanoma): 154 nM | TGI (LOX IMVI melanoma): 1210 nM | GI50 (NCI-H522 lung): 147 nM and 151 nM | TGI (NCI-H522 lung): > 50000 nM and 5610 nM | GI50 (RXF 393 renal): 174 nM and 47 nM | TGI (RXF 393 renal): 611 nM and 162 nM | GI50 (EKVX NSCLC): 22 nM and 56.8 nM | TGI (EKVX NSCLC): 289 nM and 1160 nM | GI50 (NCI-H460 NSCLC): 21.5 nM and 25.9 nM | TGI (NCI-H460 NSCLC): > 100000 nM | GI50 (SK-MEL-2 melanoma): 224 nM | TGI (SK-MEL-2 melanoma): 7360 nM | GI50 (SNB-75 CNS): 7.16 nM and < 13.2 nM | TGI (SNB-75 CNS): 31.7 nM and 81.4 nM | GI50 (SF-539 CNS): 103 nM and 96.9 nM | GI50 (HCT-15 colon): 47.8 nM and 78.3 nM | TGI (HCT-15 colon): > 50000 nM | GI50 (SF-268 CNS): 132 nM and 268 nM | TGI (SF-268 CNS): 29100 nM | GI50 (OVCAR-8 ovarian): 118 nM and 219 nM | TGI (OVCAR-8 ovarian): > 50000 nM | GI50 (MDA-MB-231 breast): 1960 nM and 219 nM | GI50 (U251 glioblastoma): 314 nM and 510 nM | TGI (U251 glioblastoma): > 100000 nM | GI50 (MDA-MB-468 breast): 15.3 nM and 20.4 nM | TGI (MDA-MB-468 breast): 79.7 nM and 138 nM | GI50 (NCI/ADR-RES ovarian): 1970 nM and 424 nM | TGI (NCI/ADR-RES ovarian): > 100000 nM | GI50 (COLO 205 colon): 26.9 nM and 48.5 nM | TGI (COLO 205 colon): 3670 nM and 3440 nM | GI50 (KM12 colon): 436 nM and 316 nM | TGI (KM12 colon): > 100000 nM | GI50 (UO-31 renal): 30.5 nM | TGI (UO-31 renal): 258 nM | GI50 (T-47D breast): < 5 nM | TGI (T-47D breast): 25.6 nM and < 10.6 nM | GI50 ([…]-0 renal): 177 nM and 242 nM | TGI (786-0 renal): 14000 nM | GI50 (HL-60(TB) leukemia): < 5 nM | GI50 (DU-145 prostate): 128 nM and 164 nM | TGI (DU-145 prostate): > 100000 nM | GI50 (RPMI-8226 leukemia): 129 nM and 122 nM | TGI (RPMI-8226 leukemia): 441 nM and 285 nM | GI50 (OVCAR-3 ovarian): 69 nM and 43.9 nM | TGI (OVCAR-3 ovarian): 556 nM and 619 nM | GI50 (HCT-116 colon): 101 nM and 163 nM | TGI (HCT-116 colon): > 50000 nM | GI50 (M14 melanoma): 190 nM and 158 nM | TGI (M14 melanoma): > 50000 nM | GI50 (HT29 colon): 22.9 nM | TGI (HT29 colon): > 50000 nM | GI50 (ACHN renal): 26.6 nM and 108 nM | GI50 (SK-MEL-5 melanoma): 69.8 nM and 95.1 nM | TGI (SK-MEL-5 melanoma): 197 nM and 431 nM | GI50 (HS 578T breast): 55.7 nM and 30 nM | TGI (HS 578T breast): 289 nM and 347 nM | GI50 (MDA-MB-435 melanoma): 237 nM | TGI (MDA-MB-435 melanoma): > 100000 nM | GI50 (MOLT-4 leukemia): 17.3 nM and < 11.8 nM | TGI (MOLT-4 leukemia): 101 nM and 38.5 nM | GI50 (SR leukemia): 215 nM and 198 nM | TGI (SR leukemia): 3020 nM and 714 nM | GI50 (HOP-62 NSCLC): 167 nM and 385 nM | TGI (HOP-62 NSCLC): > 100000 nM | GI50 (UACC-62 melanoma): 82 nM and 84.4 nM | TGI (UACC-62 melanoma): 237 nM and 362 nM | GI50 (TK-10 renal): 22.8 nM and 28 nM | TGI (TK-10 renal): 583 nM and 612 nM | GI50 (OVCAR-4 ovarian): 419 nM and 388 nM | TGI (OVCAR-4 ovarian): 15700 nM and 3430 nM | GI50 (SK-OV-3 ovarian): 10.1 nM | TGI (SK-OV-3 ovarian): 63.7 nM | GI50 (A549 NSCLC): 67.7 nM and 54.1 nM | TGI (A549 NSCLC): 849 nM and 908 nM | GI50 (K-562 leukemia): 2250 nM | TGI (K-562 leukemia): > 50000 nM
